According to US20050202505A1, “Method to identify modulators for human 3alpha-hydroxysteroid dehydrogenase” (priority 2001, published 2005):

Legend:
3a-HSD type III = molecular target: T1, 3a-HSD type III (Homo sapiens, UniProt P52895); assay: NMR screening of fragment library; format: binding
T1 construct: Full length type III 3a-HSD cDNA is amplified by RT-PCR from human fetal brain total RNA; made in house; host or cells: E. coli BL21 (DE3)
T1 sequence (P52895 1-323): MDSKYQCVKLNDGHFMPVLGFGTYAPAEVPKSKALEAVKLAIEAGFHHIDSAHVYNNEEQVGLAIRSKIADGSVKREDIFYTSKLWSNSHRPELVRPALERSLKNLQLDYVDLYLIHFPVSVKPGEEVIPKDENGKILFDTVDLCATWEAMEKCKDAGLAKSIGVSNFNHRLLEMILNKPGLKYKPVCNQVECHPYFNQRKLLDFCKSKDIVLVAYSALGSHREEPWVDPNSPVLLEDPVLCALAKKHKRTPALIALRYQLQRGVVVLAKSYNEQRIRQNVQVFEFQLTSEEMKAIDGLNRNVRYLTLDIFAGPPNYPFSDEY
Source text: NMR spectroscopy can be used to discover and design inhibitors of 3a-HSD type III. This is due to the well-known ability of NMR to detect interactions between ligands and a target protein, even if the interactions are only weak and have affinities in the millimolar range (Diercks, T.; Coles, M.; Kessler, H. Applications of NMR in drug discovery. Curr. Opin. Chem. Biol. 2001, 5, 285-291; Hajduk, P. J.; Meadows, R. P.; Fesik, S. W. NMR-based screening in drug discovery. Q. Rev. Biophys. 1999, 32, 211-240; Pellecchia, M.; Sem, D. S.; Wuthrich, K. NMR in drug discovery. Nature Reviews Drug Discovery 2002, 1, 211-219). For this purpose, a solution of 3a-HSD is added to a mixture of compounds, and NMR properties of the compounds, such as their relaxation rates, are measured and compared in the presence and absence of 3a-HSD. […] This effect can be enhanced by about a factor of 15 if side chains of 3a-HSD are spin-labeled with paramagnetic centers such as TEMPO (2,2,6,6-Tetramethylpiperidin-N-oxyl) or PROXYL (2,2,5,5-Tetramethylpyrrolidine-N-oxyl) (Jahnke, W.; Ruedisser, S.; Zurini, M. Spin Label Enhanced NMR Screening. J. Am. Chem. Soc. 2001, 123, 3149-3150; Jahnke, W. Spin labels as a tool to identify and characterize protein—ligand interactions by NMR spectroscopy. ChemBioChem 2002, 3, 167-173). […]

[1] = molecular target: T2, recombinant type-3 human 3a-HSD (Homo sapiens, UniProt P52895); assay: functional in vitro assay, oxidation of 3H-ALLO to 3H-5α-DHP; format: biochemical; conditions: NADP+, pH 7.4, 37° C., read-out: Ki OX
T2 construct: Full length type III 3a-HSD cDNA is amplified by RT-PCR from human fetal brain total RNA; made in house; host or cells: E. coli BL21 (DE3)
T2 sequence (P52895 1-323): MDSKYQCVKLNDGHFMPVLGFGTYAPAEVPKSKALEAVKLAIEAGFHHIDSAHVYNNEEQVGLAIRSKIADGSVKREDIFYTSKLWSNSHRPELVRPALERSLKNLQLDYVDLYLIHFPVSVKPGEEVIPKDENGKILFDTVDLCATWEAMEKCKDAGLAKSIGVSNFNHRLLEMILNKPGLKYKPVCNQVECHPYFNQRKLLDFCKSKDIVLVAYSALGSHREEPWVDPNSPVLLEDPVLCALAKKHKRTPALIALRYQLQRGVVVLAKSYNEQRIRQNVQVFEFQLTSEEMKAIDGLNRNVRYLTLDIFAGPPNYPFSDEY
Source text: (§1) Materials: Steroid standards (>98% purity) were purchased from Sigma Chemical Co. ^3H-allopregnanolone (64 Ci/mmol, [9, 11, 12-^3H(N)]-allopregnanolone, herein after referred to as ^3H-ALLO) was purchased from New England Nuclear. ^3H-5α-dihydroprogesterone (^3H-5α-DHP) was synthesized in our lab using an enzymatic conversion of ^3H-ALLO to ^3H-5α-DHP by the 3a-HSD (see Enzymatic reactions). The oxidation product ^3H-5α-DHP was isolated and purified by semi-preparative HPLC and confirmed by GC/MS. All solvents were of analytical grade (Merck) and were used without further purification.
(§2) Enzymatic reactions (oxidation of ^3H-ALLO to ^3H-5α-DHP and reduction of ^3H-5α-DHP to ^3H-ALLO): All enzymatic reactions were performed using pure recombinant type-3 human 3a-HSD expressed in E. coli and refolded and purified from bacterial inclusion bodies. ^3H-5a-DHP reduction was conducted in 100 μl reaction systems containing 100 mM sodium phosphate (pH 7.4), 4 μg of recombinant enzyme, 2 mM NADPH and 2.5 μM ^3H-5α-DHP (40 000 cpm) in 4% acetonitrile. Similarly, ^3H-ALLO oxidation was conducted in 100 μl reaction systems containing 100 mM sodium phosphate (pH 7.4), 4 μg of recombinant enzyme, 2 mM NADP^+ and 2.5 μM ^3H-ALLO (40 000 cpm) in 4% acetonitrile. Reactions were initiated by the addition of the respective substrate and were incubated at 37° C. for 25 min. […]

3a-HSD = molecular target: T3, 3a-HSD (Homo sapiens, UniProt P52895); assay: NMR ligand binding (line broadening of ligand resonances in the presence of protein); conditions: ligand resonances in the presence of 3a-HSD
T3 construct: Full length type III 3a-HSD cDNA is amplified by RT-PCR from human fetal brain total RNA; made in house; host or cells: E. coli BL21 (DE3)
T3 sequence (P52895 1-323): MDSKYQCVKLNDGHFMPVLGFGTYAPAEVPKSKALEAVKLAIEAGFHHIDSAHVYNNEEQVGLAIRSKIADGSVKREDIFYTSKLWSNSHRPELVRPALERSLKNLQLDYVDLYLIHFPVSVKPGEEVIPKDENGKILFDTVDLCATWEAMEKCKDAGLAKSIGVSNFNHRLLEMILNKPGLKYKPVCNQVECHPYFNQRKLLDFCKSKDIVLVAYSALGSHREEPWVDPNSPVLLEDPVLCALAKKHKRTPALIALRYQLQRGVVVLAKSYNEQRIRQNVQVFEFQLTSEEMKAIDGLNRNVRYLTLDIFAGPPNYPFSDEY
Source text: Binding of natural ligands is a prerequisite for functionality. One method to detect ligand binding by NMR takes advantage of the increased transverse relaxation rates of the ligand protons when the ligand is bound. Increased line widths in the presence of protein thus indicates binding. Binding experiments of NADP to 3a-HSD are done and check by NMR. In the presence of 3a-HSD, the NADP peaks are broadened so much that they are hardly visible in the spectrum.
(§3) Even then, the maximum achievable concentration of allo-pregnanolone is only about 20 μM. […] Based on the NMR analysis, 3a-HSD appears well-folded and functional in respect to cofactor- and ligand-binding.

[2] = maximum achievable concentration in aqueous NMR sample with co-solvents; format: physicochemical; conditions: water with 2% DMSO-d6 and 5% ethanol as co-solvents
Protocol: as §3

[3] = substrate: CC(=O)[C@H]1CC[C@H]2[C@@H]3CC[C@H]4C[C@H](O)CC[C@]4(C)[C@H]3CC[C@]12C; assay: functional in vitro assay, oxidation of 3H-ALLO to 3H-5α-DHP; format: biochemical; conditions: other: oxidation of ALLO by the type-3 human 3a-HSD; pH 7.4; 37.0 °C
Source text: as §1, §2

For `CC(=O)c1cc2ccccc2o1` [2-acetylbenzofuran], the “binding to 3a-HSD” value (3a-HSD type III; NMR screening hit) was “only weakly”, the dissociation rate (3a-HSD type III; observed by NMR, severe line broadening) was “so slow” and the Ki [1] was ~132 µM.

In the case of `NC(=O)c1ccc[n+]([C@@H]2O[C@H](COP(=O)([O-])OP(=O)(O)OC[C@H]3O[C@@H](n4cnc5c(N)ncnc54)[C@H](OP(=O)(O)O)[C@@H]3O)[C@@H](O)[C@H]2O)c1` [NADP], the “binding to 3a-HSD detected by NMR line broadening” value (3a-HSD) is reported as “proves binding”.

With `CC(=O)[C@H]1CC[C@H]2[C@@H]3CC[C@H]4C[C@H](O)CC[C@]4(C)[C@H]3CC[C@]12C` [allopregnanolone, 3α-hydroxy-5a-pregnan-20-one] the “binding to 3a-HSD detected by NMR line broadening” value (3a-HSD) was “proven” and the maximum achievable concentration [2] was “about 20 μM”.

B1: recombinant type-3 human 3a-HSD (Homo sapiens) (protein)
chain: MDSKYQCVKLNDGHFMPVLGFGTYAPAEVPKSKALEAVKLAIEAGFHHIDSAHVYNNEEQVGLAIRSKIADGSVKREDIFYTSKLWSNSHRPELVRPALERSLKNLQLDYVDLYLIHFPVSVKPGEEVIPKDENGKILFDTVDLCATWEAMEKCKDAGLAKSIGVSNFNHRLLEMILNKPGLKYKPVCNQVECHPYFNQRKLLDFCKSKDIVLVAYSALGSHREEPWVDPNSPVLLEDPVLCALAKKHKRTPALIALRYQLQRGVVVLAKSYNEQRIRQNVQVFEFQLTSEEMKAIDGLNRNVRYLTLDIFAGPPNYPFSDEY
For B1, the Km [3] was 4.9 µM.
